The target in this assay is hOGG1 (Homo sapiens, UniProt O15527). Kind of assay: Biochemical fluorescence assay to measure enzymatic activity of hOGG1 (OGG1/APEX IC50). Details: Protein His-hOGG1 (12-323) was prepared; His (N); host or cells: E. coli. The following applies: 1 nM OGG1+2 nM APEX+6 nM dsDNA (8-oxo-dG substrate); pH 7.5; RT 40 min; read-out: OGG1/APEX IC50. In outline:
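His-hOGG1 (12-323, E. coli) at 1 nM with 2 nM hAPE1/APEX1, preincubated 20 min RT with compound. Then 6 nM 8-oxo-dG dsDNA substrate added, 40 min at RT in Tris pH 7.5, 100 mM KCl. TAMRA fluorescence (Ex520/Em600) converted to % inhibition vs controls; IC50 from 3-parameter fit of 10-point curve.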

These results are taken from US20260317356A1, “SMALL MOLECULE MODULATORS OF OGG1” (AZKARRA THERAPEUTICS, INC., priority 2023, published 2026).

Bounds are passed on as bounds.

Chain of hOGG1 (O15527 12-323): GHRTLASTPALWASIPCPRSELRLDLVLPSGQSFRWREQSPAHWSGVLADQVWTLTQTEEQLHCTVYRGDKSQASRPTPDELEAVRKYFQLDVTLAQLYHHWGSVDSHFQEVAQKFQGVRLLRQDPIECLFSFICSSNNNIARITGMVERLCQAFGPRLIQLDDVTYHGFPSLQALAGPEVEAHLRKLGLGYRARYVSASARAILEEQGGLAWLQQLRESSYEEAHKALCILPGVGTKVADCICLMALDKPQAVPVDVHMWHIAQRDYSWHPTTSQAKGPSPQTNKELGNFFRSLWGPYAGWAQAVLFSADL

As for `COc1cc(NC(=O)[C@H]2CC[C@@H](N3Cc4c(F)cccc4C3=O)CC2)ccc1C` [Example 164, (1s,4s)-4-(4-Fluoro-1-oxoisoindolin-2-yl)-N-(3-methoxy-4-methylphenyl)cyclohexanecarboxamide], the IC50 was in the range of 1000 to 10000 nM.

For the molecule `CCc1ccc(NC(=O)[C@H]2CC[C@@H](N3Cc4c(C)cccc4NC3=O)CC2)cc1OC` [Example 95, (1s,4s)-N-(4-ethyl-3-methoxyphenyl)-4-(5-methyl-2-oxo-1,2-dihydroquinazolin-3(4H)-yl)cyclohexanecarboxamide], the IC50 is 100 to 1000 nM. In the case of `COc1ccc(NC(=O)[C@H]2CC[C@@H](N3Cc4c(C)cccc4C3=O)CC2)cn1` [Example 249, (1s,4s)-N-(6-Methoxypyridin-3-yl)-4-(4-methyl-1-oxoisoindolin-2-yl)cyclohexanecarboxamide], the IC50 lay in the range of 1000 to 10000 nM. Next, `COc1cc(NC(=O)[C@H]2CC[C@@H](N3Cc4c(O)cccc4C3=O)CC2)ccc1C` [Example 197, (1s,4s)-4-(4-Hydroxy-1-oxoisoindolin-2-yl)-N-(3-methoxy-4-methylphenyl)cyclohexanecarboxamide]: 1000 to 10000 nM; `COc1cc(NC(=O)[C@H]2CC[C@@H](N3C(=O)c4c(C)ccc(C)c4C3=O)CC2)ccc1C` [Example 253, (1s,4s)-4-(4,7-Dimethyl-1,3-dioxoisoindolin-2-yl)-N-(3-methoxy-4-methylphenyl)cyclohexanecarboxamide]: 100 to 1000 nM; `COc1cc(NC(=O)[C@H]2CC[C@@H](N3Cc4c(C)cc(CNC(C)=O)cc4NC3=O)CC2)ccc1C` [Example 27, (1s,4s)-4-(7-(Acetamidomethyl)-5-methyl-2-oxo-1,2-dihydroquinazolin-3(4H)-yl)-N-(3-methoxy-4-methylphenyl)cyclohexanecarboxamide]: less than 100 nM. Take `C=Cc1ccc(C)c2c1NC(=O)N([C@H]1CC[C@@H](C(=O)Nc3ccc(C)c(OC)c3)CC1)C2` [Example 55, (1s,4s)-N-(3-Methoxy-4-methylphenyl)-4-(5-methyl-2-oxo-8-vinyl-1,2-dihydroquinazolin-3(4H)-yl)cyclohexanecarboxamide]: the IC50 was less than 100 nM. Consider `Cc1cccc2c1CN([C@H]1CC[C@@H](C(=O)Nc3ccc(=O)[nH]c3)CC1)C2=O` [Example 251, (1s,4s)-4-(4-Methyl-1-oxoisoindolin-2-yl)-N-(6-oxo-1,6-dihydropyridin-3-yl)cyclohexanecarboxamide], for which the IC50 was greater than 10000 nM.

For the molecule `COc1cc(NC(=O)[C@H]2CC[C@@H](N3Cc4c(C)cccc4C3=O)CC2)ccc1C` [Example 153, (1s,4s)-N-(3-Methoxy-4-methylphenyl)-4-(4-methyl-1-oxoisoindolin-2-yl)cyclohexanecarboxamide], the IC50 lay within 100 to 1000 nM.

On to `CNCCNc1cc(Br)c2c(c1)C(=O)N([C@H]1CC[C@@H](C(=O)Nc3ccc(C)c(OC)c3)CC1)C2` [Example 175, (1s,4s)-4-(4-Bromo-6-(2-(methylamino)ethylamino)-1-oxoisoindolin-2-yl)-N-(3-methoxy-4-methylphenyl)cyclohexanecarboxamide], for which the IC50 was less than 100 nM. In the case of `COc1cc(NC(=O)[C@H]2CC[C@@H](N3Cc4c(C)cc(CO)cc4NC3=O)CC2)ccc1C` [Example 81, (1s,4s)-4-(7-(hydroxymethyl)-5-methyl-2-oxo-1,2-dihydroquinazolin-3(4H)-yl)-N-(3-methoxy-4-methylphenyl)cyclohexanecarboxamide], the IC50 is less than 100 nM. Next, `COc1cc(NC(=O)[C@H]2CC[C@@H](N3Cc4c(Br)cc(NC(C)C(C)O)cc4C3=O)CC2)ccc1C` (some centres unmarked) [Example 178, (1s,4s)-4-(4-Bromo-6-(3-hydroxybutan-2-ylamino)-1-oxoisoindolin-2-yl)-N-(3-methoxy-4-methylphenyl)cyclohexanecarboxamide]: 1000 to 10000 nM; `COc1ccc(NC(=O)[C@H]2CC[C@@H](N3Cc4c(C)cccc4NC3=O)CC2)cc1F` [Example 89, (1s,4s)-N-(3-fluoro-4-methoxyphenyl)-4-(5-methyl-2-oxo-1,2-dihydroquinazolin-3(4H)-yl)cyclohexanecarboxamide]: 100 to 1000 nM.

Take `COc1cc(NC(=O)[C@H]2CC[C@@H](N3Cc4c(C)cc(CN5CC[C@@H](O)C5)cc4C3=O)CC2)ccc1C` [Example 137, (1S,4s)-4-(6-(((R)-3-Hydroxypyrrolidin-1-yl)methyl)-4-methyl-1-oxoisoindolin-2-yl)-N-(3-methoxy-4-methylphenyl)cyclohexanecarboxamide]: the IC50 is less than 100 nM. Turning to `COc1cc(NC(=O)[C@H]2CC[C@@H](N3Cc4c(Br)ccnc4C3=O)CC2)ccc1C` [Example 168, (1s,4s)-4-(4-Bromo-7-oxo-5H-pyrrolo[3,4-b]pyridin-6 (7H)-yl)-N-(3-methoxy-4-methylphenyl)cyclohexanecarboxamide], the IC50 was 100 to 1000 nM. Take `COc1cc(NC(=O)[C@H]2CC[C@@H](N3Cc4c(CN)cccc4C3=O)CC2)ccc1C` [Example 134, (1s,4s)-4-(4-(aminomethyl)-1-oxoisoindolin-2-yl)-N-(3-methoxy-4-methylphenyl)cyclohexane-1-carboxamide]: the IC50 was greater than 10000 nM.

On to `COc1cc(NC(=O)[C@H]2CC[C@@H](N3Cc4c(ccc(O)c4C)NC3=O)CC2)ccc1C` [Example 60, (1s,4s)-4-(6-Hydroxy-5-methyl-2-oxo-1,2-dihydroquinazolin-3(4H)-yl)-N-(3-methoxy-4-methylphenyl)cyclohexanecarboxamide], for which the IC50 is less than 100 nM. The same measure for `COc1cc(NC(=O)[C@H]2CC[C@@H](N3Cc4c(Br)cc(NC(=O)CCN(C)C)cc4C3=O)CC2)ccc1C` [Example 204, (1s,4s)-4-(4-Bromo-6-(3-(dimethylamino)propanamido)-1-oxoisoindolin-2-yl)-N-(3-methoxy-4-methylphenyl)cyclohexanecarboxamide]: less than 100 nM. Consider `COc1cc(NC(=O)[C@H]2CC[C@@H](N3Cc4c(C)cc(C=O)cc4C3=O)CC2)ccc1C` [Example 210, (1s,4s)-4-(6-Formyl-4-methyl-1-oxoisoindolin-2-yl)-N-(3-methoxy-4-methylphenyl)cyclohexanecarboxamide], for which the IC50 was 100 to 1000 nM. On to `COc1cc(NC(=O)[C@H]2CC[C@@H](N3Cc4c(C)cc(O)cc4OC3=O)CC2)ccc1C` [Example 116, (1s,4s)-4-(7-hydroxy-5-methyl-2-oxo-2H-benzo[e][1,3]oxazin-3(4H)-yl)-N-(3-methoxy-4-methylphenyl)cyclohexane-1-carboxamide], for which the IC50 was in the range of 100 to 1000 nM. Turning to `COc1cc(NC(=O)[C@H]2CC[C@@H](N3Cc4c(C)cc(O)cc4NC3=O)CC2)ccc1C` [Example 77, (1s,4s)-4-(7-hydroxy-5-methyl-2-oxo-1,2-dihydroquinazolin-3(4H)-yl)-N-(3-methoxy-4-methylphenyl)cyclohexanecarboxamide], the IC50 was less than 100 nM. As to `COc1cc(NC(=O)[C@H]2CC[C@@H](N3Cc4c(C)cc(C=O)cc4NC3=O)CC2)ccc1C` [Example 78, (1s,4s)-4-(7-formyl-5-methyl-2-oxo-1,2-dihydroquinazolin-3(4H)-yl)-N-(3-methoxy-4-methylphenyl)cyclohexanecarboxamide], the IC50 is less than 100 nM. On to `COc1ncc(NC(=O)[C@H]2CC[C@@H](N3Cc4c(C)cccc4C3=O)CC2)cc1Cl` [Example 221, (1s,4s)-N-(5-Chloro-6-methoxypyridin-3-yl)-4-(4-methyl-1-oxoisoindolin-2-yl)cyclohexanecarboxamide], for which the IC50 fell in the range of 100 to 1000 nM.
